Results taken from US20250177414A1, “COMBINATION THERAPIES FOR TREATMENT OF BREAST CANCER” (Genentech, Inc., priority 2023, published 2025).
Entries after “also recorded” stand apart in the source; their conditions may differ. Like-named read-outs stand apart in the source and are kept apart here.

What was measured:
[1] = test system: patients with HR+/HER2− breast cancer; settings: in combination with letrozole; cited from earlier work
[2] = test system: patients with HR+/HER2− breast cancer; settings: in combination with fulvestrant; cited from earlier work
patients with HR+ LA/mBC = settings: published trials; cited from earlier work
ER = settings: cited from earlier work
P-glycoprotein (P-gp) = P-glycoprotein (P-gp) (Homo sapiens, UniProt P08183); test: In vitro transporter study; type: in vitro ADME
rat bone marrow = test: In vivo rat bone marrow micronucleus test
[3] = Plasma protein binding in vitro; type: in vitro ADME
OAT1 = OAT1 (Homo sapiens, UniProt Q4U2R8); test: In vitro transporter study; type: in vitro ADME
dogs = test: Repeat-dose toxicity studies in dogs; type: in vivo, dog
MATE2K = MATE2K (Homo sapiens, UniProt Q86VL8); test: In vitro transporter study; type: in vitro ADME
OAT3 = OAT3 (Homo sapiens, UniProt Q8TCC7); test: In vitro transporter study; type: in vitro ADME
CYP1A2 = CYP1A2 (Homo sapiens, UniProt P05177); test: In vitro CYP450 study; type: in vitro ADME
CYP2B6 = CYP2B6 (Homo sapiens, UniProt P20813); test: In vitro CYP450 study; type: in vitro ADME
clinical = settings: human, 9 mg/day
MATE1 = MATE1 (Homo sapiens, UniProt Q96FL8); test: In vitro transporter study; type: in vitro ADME
OAT2 = OAT2 (Homo sapiens, UniProt Q9Y694); test: In vitro transporter study; type: in vitro ADME
[4] = test system: bacterial reverse mutation; test: Bacterial reverse mutation (Ames) assay; type: cell-based
Text: (§1) Inavolisib was not mutagenic in the bacterial reverse mutation (Ames) assay. Inavolisib was clastogenic in an in vitro human lymphocyte micronucleus assay.

CYP2C9 = CYP2C9 (Homo sapiens, UniProt P11712); test: In vitro CYP450 study; type: in vitro ADME
liver = settings: in vivo
OATP1B1 = OATP1B1 (Homo sapiens, UniProt Q9Y6L6); test: In vitro transporter study; type: in vitro ADME
pregnant rats = test: Embryo-fetal development study; type: in vivo, rat
OATP1B3 = OATP1B3 (Homo sapiens, UniProt Q9NPD5); test: In vitro transporter study; type: in vitro ADME
CYP2D6 = CYP2D6 (Homo sapiens, UniProt P10635); test: In vitro CYP450 study; type: in vitro ADME
QTc interval = test: Cardiac electrophysiology; type: in vivo, human; settings: recommended approved dosage
Text: At the recommended approved dosage, a mean increase in the QTc interval of ≥20 ms is unlikely.

[5] = biological target: breast cancer resistance protein (BCRP) (Homo sapiens, UniProt Q9UNQ0); test: In vitro transporter study; type: in vitro ADME
human lymphocyte = test: In vitro human lymphocyte micronucleus assay; type: cell-based
Text: as §1

OCT2 = OCT2 (Homo sapiens, UniProt O15244); test: In vitro transporter study; type: in vitro ADME
[6] = test system: PIK3CA-mutated, estrogen receptor-positive, breast cancer xenograft models; test: Breast cancer xenograft models; type: in vivo; settings: single agent
PI3Kα = PI3Kα (Homo sapiens, UniProt P42336); test: PI3K inhibition; type: biochemical
[7] = test system: PIK3CA-mutated breast cancer cell lines; test: In vitro activity in breast cancer cell lines
CYP2C19 = CYP2C19 (Homo sapiens, UniProt P33261); test: In vitro CYP450 study; type: in vitro ADME
OCT1 = OCT1 (Homo sapiens, UniProt O15245); test: In vitro transporter study; type: in vitro ADME
rats = test: Repeat-dose toxicity studies in rats; type: in vivo, rat
Aqueous solubility = type: physicochemical
Text: Inavolisib is a white to off-white, greyish pink, greyish orange, or greyish yellow powder or powder with lumps.

CYP3A = test: In vitro CYP450 study; type: in vitro ADME
CYP2C8 = CYP2C8 (Homo sapiens, UniProt P10632); test: In vitro CYP450 study; type: in vitro ADME
[8] = Clinical pharmacokinetics of inavolisib

OATP1B1, sequence (Q9Y6L6 whole entry): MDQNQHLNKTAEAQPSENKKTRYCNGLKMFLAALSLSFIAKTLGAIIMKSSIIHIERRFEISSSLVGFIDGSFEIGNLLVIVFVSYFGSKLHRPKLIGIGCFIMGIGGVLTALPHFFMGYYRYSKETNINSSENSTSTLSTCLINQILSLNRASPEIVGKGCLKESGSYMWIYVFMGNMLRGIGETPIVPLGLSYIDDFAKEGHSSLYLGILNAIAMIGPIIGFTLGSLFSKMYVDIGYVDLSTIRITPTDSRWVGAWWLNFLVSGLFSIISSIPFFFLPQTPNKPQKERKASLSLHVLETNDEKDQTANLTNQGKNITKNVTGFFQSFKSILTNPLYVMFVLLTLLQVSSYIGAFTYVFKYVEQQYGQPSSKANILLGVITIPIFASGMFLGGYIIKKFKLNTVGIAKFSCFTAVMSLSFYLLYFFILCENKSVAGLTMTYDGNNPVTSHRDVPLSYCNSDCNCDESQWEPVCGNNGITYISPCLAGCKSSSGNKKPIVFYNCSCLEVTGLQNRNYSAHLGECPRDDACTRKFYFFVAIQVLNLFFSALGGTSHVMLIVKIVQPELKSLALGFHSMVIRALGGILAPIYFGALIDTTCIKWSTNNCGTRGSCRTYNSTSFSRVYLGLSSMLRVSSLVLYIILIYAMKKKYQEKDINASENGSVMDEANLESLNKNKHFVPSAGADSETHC
P-glycoprotein (P-gp), sequence (P08183 whole entry): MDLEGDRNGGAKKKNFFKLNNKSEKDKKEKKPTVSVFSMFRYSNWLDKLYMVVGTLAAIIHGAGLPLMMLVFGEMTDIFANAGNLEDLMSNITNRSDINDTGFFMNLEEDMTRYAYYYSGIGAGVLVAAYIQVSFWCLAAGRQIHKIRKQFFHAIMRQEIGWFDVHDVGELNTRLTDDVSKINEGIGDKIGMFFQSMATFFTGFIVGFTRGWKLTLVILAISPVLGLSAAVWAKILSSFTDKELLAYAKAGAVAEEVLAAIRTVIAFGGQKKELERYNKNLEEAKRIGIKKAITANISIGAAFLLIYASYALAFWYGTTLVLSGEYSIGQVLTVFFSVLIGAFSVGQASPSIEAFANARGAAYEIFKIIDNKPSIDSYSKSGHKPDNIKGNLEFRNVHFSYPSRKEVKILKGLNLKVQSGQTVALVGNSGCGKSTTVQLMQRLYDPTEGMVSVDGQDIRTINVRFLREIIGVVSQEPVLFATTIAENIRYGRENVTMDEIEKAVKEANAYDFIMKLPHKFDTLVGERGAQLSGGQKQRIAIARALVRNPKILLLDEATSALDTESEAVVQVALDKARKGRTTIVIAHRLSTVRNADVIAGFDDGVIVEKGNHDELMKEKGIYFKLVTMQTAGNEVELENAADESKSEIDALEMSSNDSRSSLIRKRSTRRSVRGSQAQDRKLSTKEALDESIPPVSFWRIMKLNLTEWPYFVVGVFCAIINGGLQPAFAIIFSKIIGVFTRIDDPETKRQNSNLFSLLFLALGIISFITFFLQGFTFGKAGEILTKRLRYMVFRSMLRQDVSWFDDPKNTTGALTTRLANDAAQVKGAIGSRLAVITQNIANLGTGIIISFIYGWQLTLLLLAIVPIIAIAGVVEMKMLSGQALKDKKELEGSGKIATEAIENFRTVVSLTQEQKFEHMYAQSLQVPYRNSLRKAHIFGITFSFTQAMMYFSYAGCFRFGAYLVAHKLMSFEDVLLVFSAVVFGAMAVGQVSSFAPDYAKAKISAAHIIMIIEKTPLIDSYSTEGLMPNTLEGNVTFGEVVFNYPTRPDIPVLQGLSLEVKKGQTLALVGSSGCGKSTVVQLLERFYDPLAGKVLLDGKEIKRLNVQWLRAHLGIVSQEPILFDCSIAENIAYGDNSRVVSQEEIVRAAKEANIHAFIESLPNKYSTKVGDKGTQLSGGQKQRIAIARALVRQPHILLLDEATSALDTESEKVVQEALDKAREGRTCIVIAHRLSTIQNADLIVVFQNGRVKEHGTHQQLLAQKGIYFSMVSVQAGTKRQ
OCT1, sequence (O15245 whole entry): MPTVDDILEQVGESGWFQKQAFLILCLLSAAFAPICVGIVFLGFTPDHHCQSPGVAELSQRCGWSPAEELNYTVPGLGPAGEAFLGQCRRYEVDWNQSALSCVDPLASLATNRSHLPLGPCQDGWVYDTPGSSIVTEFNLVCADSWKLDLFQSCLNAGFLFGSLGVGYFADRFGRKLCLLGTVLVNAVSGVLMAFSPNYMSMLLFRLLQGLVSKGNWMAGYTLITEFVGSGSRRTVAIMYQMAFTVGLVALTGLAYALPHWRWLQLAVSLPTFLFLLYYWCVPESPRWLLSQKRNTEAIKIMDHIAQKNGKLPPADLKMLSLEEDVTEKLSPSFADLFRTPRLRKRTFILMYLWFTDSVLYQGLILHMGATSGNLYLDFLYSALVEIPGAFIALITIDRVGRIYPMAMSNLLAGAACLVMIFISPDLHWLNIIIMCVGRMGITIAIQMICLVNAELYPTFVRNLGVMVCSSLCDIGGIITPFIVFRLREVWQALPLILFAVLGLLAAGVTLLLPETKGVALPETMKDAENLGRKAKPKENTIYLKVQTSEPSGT
MATE2K, sequence (Q86VL8 1-566 isoform Q86VL8-3): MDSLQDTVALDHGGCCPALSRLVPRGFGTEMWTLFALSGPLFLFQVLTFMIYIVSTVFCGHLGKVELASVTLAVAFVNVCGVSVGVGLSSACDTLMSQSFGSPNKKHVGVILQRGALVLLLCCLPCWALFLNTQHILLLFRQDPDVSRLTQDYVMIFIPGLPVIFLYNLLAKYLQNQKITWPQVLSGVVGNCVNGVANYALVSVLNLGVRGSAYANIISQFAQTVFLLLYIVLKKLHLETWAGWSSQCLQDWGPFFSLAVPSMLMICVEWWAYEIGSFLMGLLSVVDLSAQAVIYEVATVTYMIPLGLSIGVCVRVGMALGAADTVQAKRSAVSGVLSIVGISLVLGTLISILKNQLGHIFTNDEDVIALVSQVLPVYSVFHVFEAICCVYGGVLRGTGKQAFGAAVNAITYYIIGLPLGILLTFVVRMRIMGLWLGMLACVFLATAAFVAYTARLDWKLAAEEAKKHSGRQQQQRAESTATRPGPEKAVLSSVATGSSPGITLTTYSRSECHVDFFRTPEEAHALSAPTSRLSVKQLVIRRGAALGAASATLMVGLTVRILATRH
OATP1B3, sequence (Q9NPD5 whole entry): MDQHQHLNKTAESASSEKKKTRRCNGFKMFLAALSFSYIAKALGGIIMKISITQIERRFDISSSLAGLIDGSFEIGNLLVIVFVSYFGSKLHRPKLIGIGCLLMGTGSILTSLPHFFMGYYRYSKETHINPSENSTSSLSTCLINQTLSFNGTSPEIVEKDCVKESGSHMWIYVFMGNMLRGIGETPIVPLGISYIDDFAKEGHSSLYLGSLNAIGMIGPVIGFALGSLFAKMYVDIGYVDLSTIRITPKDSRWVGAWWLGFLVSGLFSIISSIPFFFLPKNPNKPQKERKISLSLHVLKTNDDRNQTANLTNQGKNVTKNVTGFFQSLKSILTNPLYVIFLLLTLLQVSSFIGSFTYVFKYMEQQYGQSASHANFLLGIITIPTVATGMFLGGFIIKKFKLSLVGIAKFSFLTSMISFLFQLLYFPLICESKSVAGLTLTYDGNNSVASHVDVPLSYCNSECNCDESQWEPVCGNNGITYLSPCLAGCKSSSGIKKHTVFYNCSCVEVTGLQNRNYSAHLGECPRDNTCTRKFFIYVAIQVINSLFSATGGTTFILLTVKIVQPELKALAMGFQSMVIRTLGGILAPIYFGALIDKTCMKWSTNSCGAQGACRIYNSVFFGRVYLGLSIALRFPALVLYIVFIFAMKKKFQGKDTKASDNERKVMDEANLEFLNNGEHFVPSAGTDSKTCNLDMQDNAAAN
breast cancer resistance protein (BCRP), sequence (Q9UNQ0 whole entry): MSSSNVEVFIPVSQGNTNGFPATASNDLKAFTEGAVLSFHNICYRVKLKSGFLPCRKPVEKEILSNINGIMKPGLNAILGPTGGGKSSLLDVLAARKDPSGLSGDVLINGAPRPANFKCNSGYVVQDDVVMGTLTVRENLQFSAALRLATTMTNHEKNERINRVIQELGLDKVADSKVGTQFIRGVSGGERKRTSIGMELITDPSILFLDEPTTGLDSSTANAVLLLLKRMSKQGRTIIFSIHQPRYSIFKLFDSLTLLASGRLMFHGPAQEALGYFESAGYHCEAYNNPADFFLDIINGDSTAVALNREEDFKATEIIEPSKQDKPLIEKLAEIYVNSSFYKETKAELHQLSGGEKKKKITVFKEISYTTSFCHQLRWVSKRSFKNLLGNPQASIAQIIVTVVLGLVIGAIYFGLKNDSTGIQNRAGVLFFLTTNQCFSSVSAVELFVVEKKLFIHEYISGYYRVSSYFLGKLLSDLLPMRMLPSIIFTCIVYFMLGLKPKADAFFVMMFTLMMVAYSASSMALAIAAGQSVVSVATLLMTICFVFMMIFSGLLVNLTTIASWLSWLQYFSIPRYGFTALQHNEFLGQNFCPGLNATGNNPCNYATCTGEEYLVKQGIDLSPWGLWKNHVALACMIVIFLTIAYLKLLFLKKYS
OAT1, sequence (Q4U2R8 whole entry): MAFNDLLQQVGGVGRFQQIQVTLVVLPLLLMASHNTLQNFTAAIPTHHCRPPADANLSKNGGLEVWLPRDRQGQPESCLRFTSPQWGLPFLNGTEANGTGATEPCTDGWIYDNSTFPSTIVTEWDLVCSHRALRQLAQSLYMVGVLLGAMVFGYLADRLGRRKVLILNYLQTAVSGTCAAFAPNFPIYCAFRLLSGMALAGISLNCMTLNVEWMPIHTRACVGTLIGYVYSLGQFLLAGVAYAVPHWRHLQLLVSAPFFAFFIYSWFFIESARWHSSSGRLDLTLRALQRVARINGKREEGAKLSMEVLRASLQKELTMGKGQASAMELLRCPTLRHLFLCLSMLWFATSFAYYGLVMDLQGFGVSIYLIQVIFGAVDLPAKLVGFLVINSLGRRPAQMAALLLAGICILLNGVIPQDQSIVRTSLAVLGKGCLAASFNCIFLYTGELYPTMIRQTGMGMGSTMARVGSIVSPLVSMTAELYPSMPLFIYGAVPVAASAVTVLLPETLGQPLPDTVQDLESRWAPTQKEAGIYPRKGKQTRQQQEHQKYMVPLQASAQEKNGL

## CC(=O)c1c(C)c2cnc(Nc3ccc(N4CCNCC4)cn3)nc2n(C2CCCC2)c1=O [palbociclib, 6-acetyl-8-cyclopentyl-5-methyl-2-(5-(piperazin-1-yl)pyridin-2-ylamino)pyrido[2,3-d]pyrimidin-7(8H)-one]
[1]
  Cycle delays: 68%
  Dose holds: 70%
  Patients requiring ≥1 dose reduction of palbociclib: 36%
[2]
  Cycle delays: 36%
  Dose holds: 54%
  Patients requiring ≥1 dose reduction of palbociclib: 34%

## Cc1nc(NC(=O)N2CCC[C@H]2C(N)=O)sc1-c1ccnc(C(C)(C)C(F)(F)F)c1 [alpelisib]
Patients with HR+ LA/mBC
  Treatment discontinuation rate due to adverse events: 25.0%

## CO[C@H]1C[C@@H]2CC[C@@H](C)[C@@](O)(O2)C(=O)C(=O)N2CCCC[C@H]2C(=O)O[C@H]([C@H](C)C[C@@H]2CC[C@@H](OCCO)[C@H](OC)C2)CC(=O)[C@H](C)/C=C(\C)[C@@H](O)[C@@H](OC)C(=O)[C@H](C)C[C@H](C)/C=C/C=C/C=C/1C [everolimus]
Patients with HR+ LA/mBC
  Treatment discontinuation rate due to adverse events: 19%

## C[C@]12CC[C@@H]3c4ccc(O)cc4C[C@@H](CCCCCCCCC[S+]([O-])CCCC(F)(F)C(F)(F)F)[C@H]3[C@@H]1CC[C@@H]2O (stereo partly drawn) [fulvestrant, (7α,17β)-7-{9-[(4,4,5,5,5-pentafluoropentyl)sulfinyl]nonyl}estra-1,3,5(10)-triene-3,17-diol]
ER
  Affinity for the ER relative to tamoxifen: approximately 100 fold

## C[C@H](Nc1ccc2c(c1)OCCn1cc(N3C(=O)OC[C@H]3C(F)F)nc1-2)C(N)=O [inavolisib, (S)-2-((2-((S)-4-(difluoromethyl)-2-oxooxazolidin-3-yl)-5,6-dihydrobenzo[f]imidazo[1,2-d][1,4]oxazepin-9-yl)amino)propanamide]
P-glycoprotein (P-gp)
  P-gp inhibition: does not inhibit
  P-gp substrate: is a substrate
Rat bone marrow
  Genotoxicity: not genotoxic
[3]
  fraction unbound: 0.63
OAT1
  OAT1 inhibition: does not inhibit
  OAT1 substrate: is not a substrate
dogs; dogs, oral
  Dose with lens cortex vacuolation: ≥ 1 mg/kg/day
  Dose with lens fiber swelling: ≥ 0.3 mg/kg/day
dogs; male dogs, 3 months
  Dose with decreased sperm count: ≥ 1 mg/kg/day
dogs; male dogs, 4 weeks
  Dose with testis and epididymis findings: ≥ 1.5 mg/kg/day
MATE2K
  MATE2K inhibition: does not inhibit
  MATE2K substrate: is not a substrate
OAT3
  OAT3 inhibition: does not inhibit
CYP1A2
  CYP1A2 inhibition: does not inhibit
CYP2B6
  CYP2B6 induction: induces
  CYP2B6 inhibition: does not inhibit
clinical; in vivo, po
  bioavailability: 76%
clinical; plasma, oral
  clearance: 147 mL/min
  half-life: 15 h
clinical; plasma, po
  Vd/F: 155 L
MATE1
  MATE1 inhibition: does not inhibit
  MATE1 substrate: is not a substrate
OAT2
  OAT2 substrate: is not a substrate
[4]
  Mutagenicity: not mutagenic
CYP2C9
  CYP2C9 inhibition: does not inhibit
liver
  DNA break: did not induce DNA break
OATP1B1
  OATP1B1 inhibition: does not inhibit
  OATP1B1 substrate: is not a substrate
Pregnant rats; maternal exposures approximately equivalent to the human exposure at 9 mg/day
  Developmental outcomes: caused adverse developmental outcomes
Pregnant rats; oral, period of organogenesis
  Dose resulting in decreased fetal body weight and placental weight, post-implantation loss, lower fetal viability, fetal malformations and variations: ≥ 2 mg/kg/day
OATP1B3
  OATP1B3 inhibition: does not inhibit
  OATP1B3 substrate: is not a substrate
CYP2D6
  CYP2D6 inhibition: does not inhibit
QTc interval
  Mean increase in the QTc interval of ≥20 ms: unlikely
[5]
  BCRP inhibition: does not inhibit
  BCRP substrate: is a substrate
Human lymphocyte
  Clastogenicity: clastogenic
OCT2
  OCT2 inhibition: does not inhibit
  OCT2 substrate: is not a substrate
[6]
  Tumor growth: reduced tumor growth; also recorded: inhibits tumor growth
PI3Kα
  PI3K isoform inhibitory activity: inhibitory activity predominantly against PI3Kα
[7]; in vitro
  Apoptosis: induces apoptosis
  Cellular proliferation: reduced cellular proliferation; also recorded: inhibits proliferation
  Degradation of mutated PI3K catalytic alpha subunit p110α: induced the degradation; also recorded: specifically degrades mutant p110 alpha
  Phosphorylation of the downstream target AKT: inhibited phosphorylation
[7]; nonclinical studies
  Downstream PI3K-pathway markers, including pAKT, pPRAS40, and pS6: reduces downstream PI3K-pathway markers
CYP2C19
  CYP2C19 inhibition: does not inhibit
OCT1
  OCT1 inhibition: does not inhibit
  OCT1 substrate: is not a substrate
rats; female rats, up to 3 months
  Dose with atrophy in uterus and vagina, decreased ovarian follicles, estrous cycle alteration: ≥ 3 mg/kg/day
rats; male rats
  Dose with atrophy of prostate and seminal vesicle and decreased male reproductive organ weights: ≥ 1.5 mg/kg/day
rats; rats, oral
  Dose with lens degeneration: 10 mg/kg/day
Aqueous solubility
  Aqueous solubility: pH-dependent aqueous solubility
CYP3A
  CYP3A induction: induces
  CYP3A inhibition: time-dependent inhibitor
  Metabolism by CYP3A: minimally metabolized
CYP2C8
  CYP2C8 inhibition: does not inhibit
[8]; 6 to 12 mg
  Dose proportionality of steady-state AUC: proportional with dose
[8]; high-fat meal
  Effect of food on pharmacokinetics: No clinically significant differences
[8]; human, in vivo
  Accumulation: approximately 2 fold
  Metabolism: primarily metabolized by hydrolysis
  Pharmacokinetics by age, sex, race, body weight, or mild hepatic impairment: No clinically significant differences
  Steady-state pharmacokinetics with concomitant proton pump inhibitor: No clinically significant difference
[8]; mild renal impairment
  Pharmacokinetics vs normal renal function: No clinically significant differences
[8]; moderate renal impairment
  AUC increase vs normal renal function: 73%
[8]; predicted
  Time to attain steady-state concentrations: ≤ 5 days
[8]; single oral radiolabeled dose
  Administered dose recovered in feces: 48%
  Administered dose recovered in feces unchanged: 11%
  Administered dose recovered in urine: 49%
  Administered dose recovered in urine unchanged: 40%
